Results from ChEMBL document CHEMBL5357057, “Pleosmaranes A-R, Isopimarane and 20-nor Isopimarane Diterpenoids with Anti-inflammatory Activities from the Mangrove Endophytic Fungus Pleosporales sp. HNQQJ-1” (J Nat Prod, 2024).
pIC50: −log10 of the molar value.

How the values were obtained:
RAW264.7 [1] = assay: Anti-inflammatory activity in mouse RAW264.7 cells assessed as inhibition of LPS-induced NO production incubated for 24 hrs by Griess reagent based analysis; type: functional, cell-based; details: RAW264.7, 24 h
RAW264.7 [2] = assay: Cytotoxicity against mouse RAW264.7 cells assessed as reduction in cell viability at 5 to 50 uM measured for 24 hrs by MTT assay; type: toxicity, cell-based; details: raw264.7, 24 h, dose 5-50 µM

| Compound | pIC50 (RAW264.7 [1]) | Activity (RAW264.7 [2]) |
| --- | --- | --- |
| C=C[C@]1(C)C=C2C(=O)C[C@H]3C(C)(C)CC[C@@H](OC(C)=O)[C@]3(C)[C@@]2(O)CC1 | 4.48 | Non-Toxic |
| C=C[C@@]1(C)CCc2c3c(cc(O)c2[C@H]1O)[C@](C)(CO)CCC3 | < 4.30 | Non-Toxic |
| C=C[C@@]1(C)CCC2=C([C@H]3O[C@@H](OC)[C@@]24CCCC(C)(C)[C@@H]4[C@H]3OC(C)=O)[C@H]1O | 4.43 | Non-Toxic |
| C=C[C@]1(C)C=C2[C@H]3O[C@@H](O)[C@@]4(CCCC(C)(C)[C@@H]4[C@H]3OC(C)=O)[C@@]2(O)CC1 | 4.48 | Non-Toxic |
| C=C[C@@]1(C)CCc2c3c(cc(O)c2[C@@H]1O)[C@@](C)(CO)CCC3 | < 4.30 | Non-Toxic |
| C=C[C@]1(C)C=C2C(=O)C[C@H]3C(C)(C)CCC[C@]3(C(=O)O)[C@@]2(O)CC1 [SPHAEROPSIDIN C] | 4.51 | Non-Toxic |
| C=C[C@@]1(C)CCc2c3c(cc(O)c2[C@@H]1OC)C(C)(C)CCC3 | 4.52 | Non-Toxic |
| C=C[C@]1(C)C=C2[C@@H](O)C[C@H]3C(C)(C)CC[C@@H](OC(C)=O)[C@]3(C)[C@@]2(O)CC1 | 4.60 | Non-Toxic |
| C=C[C@@]1(C)CC[C@@]2(O)C(=C[C@H](O)[C@H]3C(C)(C)CC[C@@H](OC(C)=O)[C@@]32C)[C@H]1O | < 4.30 | Non-Toxic |
| C=C[C@@]1(C)C[C@H](O)c2c3c(cc(O)c2[C@H]1OC)C(C)(C)CCC3 | 4.42 | Non-Toxic |
| C=C[C@@]1(C)CCc2c3c(cc(O)c2[C@H]1OC)[C@](C)(CO)CCC3 | 4.38 | Non-Toxic |
| C=C[C@@]1(C)CCc2c3c(cc(O)c2C1=O)[C@](C)(CO)CCC3 | 4.72 | Non-Toxic |
| C=C[C@]1(C)C=C2[C@@H](OC(C)=O)[C@H]3OC(=O)[C@@]4(CCCC(C)(C)[C@H]34)[C@@]2(O)CC1 | 4.46 | Non-Toxic |
| C=C[C@@]1(C)CCc2c3c(cc(O)c2[C@@H]1OC)[C@@](C)(CO)CCC3 | 4.38 | Non-Toxic |
| C=C[C@@]1(C)CCc2c3c(cc(O)c2[C@@H]1O)C(C)(C)CCC3 | 4.40 | Non-Toxic |
| C=C[C@]1(C)C=C2[C@@H](O)[C@H](O)[C@H]3C(C)(C)CC[C@@H](OC(C)=O)[C@]3(C)[C@@]2(O)CC1 | 4.46 | Non-Toxic |
| C=C[C@@]1(C)CCC2=C(C1)C(=O)C[C@H]1C(C)(C)[C@H](O)C[C@@H](O)[C@]21C | < 4.30 | Non-Toxic |
| C=C[C@@]1(C)CCc2c3c(cc(O)c2[C@H]1OC)C(C)(C)CCC3 | 4.43 | Non-Toxic |
| C=C[C@@]1(C)CCc2c(c(O)cc3c2CCCC3(C)C)C1 | < 4.30 | Non-Toxic |
| C=C[C@]1(C)C=C2[C@](O)(CC1)[C@@]13CCCC(C)(C)[C@@H]1[C@@H](OC(C)=O)[C@]2(O)OC3 | 4.52 | Non-Toxic |
| C=C[C@@]1(C)CCc2c3c(cc(O)c2[C@@H]1OC)C(C)(C)[C@@H](O)CC3 | 4.46 | Non-Toxic |
| C=C[C@@]1(C)CCc2c3c(cc(O)c2[C@H]1O)C(C)(C)CCC3 | < 4.30 | Non-Toxic |
